Measured values from patent publication US20220378763A1, “COMPOUND FOR TREATMENT OF ACUTE INFLAMMATION IN THE MYOCARDIUM” (CALPROTECT AB, priority 2019, published 2022).

Key:
S100A9 binding to RAGE = biological target: T1, S100A9 binding to RAGE (Homo sapiens, UniProt P06702); experiment: Surface plasmon resonance (Biacore 3000): inhibition of S100A9 binding to immobilized RAGE; settings: 50 nM recombinant human S100A9 over immobilized RAGE; response at late dissociation phase
T1 sequence (P06702 1-114): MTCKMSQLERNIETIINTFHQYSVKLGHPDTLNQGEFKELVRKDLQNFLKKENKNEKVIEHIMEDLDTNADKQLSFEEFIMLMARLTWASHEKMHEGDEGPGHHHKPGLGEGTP
Description: (a) The molecular structure of ABR-238901. (b-c) Surface plasmon resonance measurement of S100A9 binding to immobilized RAGE (b) and TLR4 (c) in the presence of increasing ABR-238901 concentrations. The magnitude of the response for each ABR-238901 concentration (BABR-238901), measured at the late dissociation phase (t 350s), was expressed as percentage of the response in the absence of competitor (BO), and plotted against the concentration of ABR-238901.
Inhibition of S100A9 binding to RAGE and TLR4/MD2 by ABR-238901 was tested by surface plasmon resonance in a Biacore 3000 system (GE Healthcare, Uppsala, Sweden). Briefly, 50 nM of recombinant human S100A9 was injected over immobilized RAGE and TLR4 (2 min at 30 μL/min) in the presence of increasing concentrations of ABR-238901, ranging from 0.0488 to 100 μM. The magnitude of the responses measured at the late dissociation phase (t 350 s) in the presence of ABR-238901 (BABR-238901) were expressed as percentage of response in the absence of competitor (Bo), and plotted against the concentration of ABR-238901 (FIG. 7b-c). The curves were fit to a sigmoidal dose-response model with variable slope in Prism GraphPad for calculation of IC50.

[1] = system: C57BL/6 mice with induced MI; experiment: Flow cytometry of myeloid cells and reparatory macrophages on day 7 post-MI; assay type: in vivo, mouse; settings: for Intra-myocardial counts of reparatory macrophages vs PBS-treated MI controls: hearts collected 7 days post-MI
Description: Immune cells from blood, spleen, heart and bone-marrow were collected at 2 or 7 days post-MI, and analysed by flow-cytometry. Mice were anesthetized by intraperitoneal injection of a mixture of xylazine (10 mg/kg) and ketamine (100 mg/kg). After 10 minutes, blood was collected by cardiac punction. Thereafter, the spleen was removed and the heart was perfused with 5 ml ice-cold PBS. Perfused hearts were excised and collected into tubes with PBS and kept on ice. Femurs and tibias from each mouse were used to obtain whole bone marrow for analysis. Blood was stained with fluorochrome-labelled antibodies against mouse monocyte and neutrophil markers diluted in MACS buffer (PBS, 10% FCS and 0.5% BSA), followed by treatment with erythrocyte lysis buffer, washing and analysis. Spleens were mashed trough a cell strainer in ice-cold PBS. Hearts were cut into small pieces and placed into tubes containing 2.5 ml digestion cocktail (Collagenase I, 450 U/ml; Collagenase XI, 125 U/ml; DNAase I, 60 U/ml; Hyaluronidase type 1-5, 60 U/ml diluted in PBS containing Ca and Mg) incubated for 1 h at 37° C. with shaking at 220 rpm. Bone marrow was flushed from femur and tibia using ice-cold PBS. Cell suspensions from spleen, heart and bone marrow were filtered through a 40 um cell strainer (BD), treated with erythrocyte lysis buffer, washed and stained. For intracellular staining, cells were fixed, permeabilized and stained. Cell populations were analyzed by flow cytometry in a Gallios Flow Cytometer (Backman Coulter), and the results were analyzed using FlowJo (FlowJo®, LLC; Tree Star). The following anti-mouse antibodies were used for the flow cytometric analysis: anti-CD45 (30-F11), anti-CD11b (M1/70), anti-Ly6C (HK1.4), anti-CD115 (AFS98), anti-Ly6G (1A8), anti-F4/80 (BM8), anti-CCR2 (475301), anti-Ter119 (TER119), anti-Gr1 (RB6-8C5), anti-CD45R/B220 (RA3-6B2), anti-CD3ξ (145-2C11), anti-NK1.1 (PK136), anti-Ly6A/E (Sca-1) (E13-1617), anti-CD117 (c-kit) (2B8), anti-CD48 (HM48.1), anti-CD150/SLAM (TC15-12F12.2), anti-CD16/32 (93), anti-CD34 (MEC14.7) (all from BioLegend, San Diego, Calif., USA); anti-MerTK (DSSMMER) and anti-Nur77 (12.14) (eBioscience).
MI induction and other procedures were carried out as outlined in Example 2. For long-term experiments of up to 21 days, a daily dose of 30 mg/Kg ABR-238901 was diluted in PBS and administered by daily i.p. injections for the first 3 days post-MI until the mice recovered and started to drink normally, and thereafter p.o. ad-libitum in meglumine buffer (FIG. 4A). Adequate treatment dosage was ensured by closely monitoring daily fluid intake.
In an attempt to explain these intriguing results, we assessed the effects of the extended treatment on the presence of myeloid cells in blood, spleen, bone marrow and myocardium, with particular emphasis on cellular populations involved in myocardial repair. The cellular infiltration was analysed by flow cytometry on day 7, at the peak of the reparatory post-MI period. […] Reparatory macrophages in the ischemic myocardium have previously been defined as CD11b^+F4/80^+Ly6C^lo cells. […] In order to investigate the possible mechanisms leading to impaired cardiac function in mice receiving long-term S100A9 blockade, we examined the presence and function of Ly6C^loMerTK^hi macrophages in the myocardium at 7 days post-MI. We found an approximately 50% reduction of the number of reparatory macrophages in hearts of mice receiving ABR-238901 compared to controls (FIG. 40). […] In order to test the functional importance of these findings, we used α-MHC-mCherry mice expressing cardiac-specific red fluorescent Cherry protein under the mouse a-myosin heavy-chain promoter.
Reparatory macrophage numbers were analysed in hearts collected at 7 days post-MI from mice with induced MI treated with ABR-238901 for 3 or 7 days.

[2] = treatment for 7 days, 7 days post-MI

## COc1ncc(S(=O)(=O)Nc2cncc(Cl)c2O)cc1Br [ABR-238901, 5-bromo-N-(5-chloro-4-hydroxypyridin-3-yl)-6-methoxypyridine-3-sulfonamide]
S100A9 binding to RAGE
  IC50: 2.7 µM
[1]; 3 days treatment
  Intra-myocardial counts of reparatory macrophages vs PBS-treated MI controls: on par with
[1]; continuous treatment for 7 days
  Intra-myocardial counts of reparatory macrophages vs PBS-treated MI controls: significantly lower
[1]; [2]
  Percentage of reparatory Ly6CloMerTKhi out of total CD11b+F4/80+ macrophages: significantly decreased
  Reduction of the number of reparatory Ly6CloMerTKhi macrophages in hearts vs controls: approximately 50%
[1]; treatment for 7 days, day 7
  Cell counts in the bone marrow: no differences
  Monocytes in the spleen vs MI controls: accumulation
  Numbers of circulating monocytes: significantly lower
  Numbers of circulating neutrophils: significantly lower
  Numbers of neutrophils in the spleen: not significantly affected
  Presence of monocytes in the heart: potently reduced
  Presence of total CD11b+F4/80+ macrophages in the heart: potently reduced
